In patent US20110028566A1, “COMPOSITIONS AND PRODUCTS CONTAINING CYCLOALIPHATIC DIOL ANTIMICROBIAL AGENTS AND METHODS OF USING THE COMPOSITIONS AND PRODUCTS” (EASTMAN CHEMICAL COMPANY, priority 2009, published 2011):
“And” between values parts separate entries of the source, which are not always exact repeats. Identical values can stand only once. One block for each molecule: values may come before it.

Columns and labels:
Type in all cases: cell-based
[1] = test system: Corynebacterium xerosis ATCC #373; assay: Synergy testing in brain heart infusion media, 96-well plates; conditions: for % EHG / SI: CHDM with EHG; for % EHG: relative to EHG alone; for QB/b (EHG): inhibitory concentration of EHG alone or in combination with CHDM, plate EX194-195-EHG-Syn1; for SI: synergy index
Experimental: (§1) MICs were determined using a high-throughput microplate method. Individual antimicrobial agents were added to TSB (pH 7.3) for bacterial testing or SDB (pH 5.6) for fungal testing at the highest concentration to be tested. A serial dilution series was prepared at a dilution ratio of 1:1.3333 such that a one log range was covered in nine dilutions. Two-hundred microliters of the diluted antimicrobial agents were dispensed into four wells each of a sterile, 96-well, flat-bottom microplate (Nalge Nunc International). Four additional wells of the highest concentration were dispensed to serve as uninoculated high-level controls. Eight additional wells containing only broth medium were also prepared, four to serve as negative controls and four as positive controls. Three wells of each antimicrobial agent dilution were inoculated with one of the test strains in Table 7. The final well of each antimicrobial agent dilution was left uninoculated to serve as a control (and means of compensating) for any absorbance/turbidity due to the test compounds.
The individual antimicrobial agents listed in Table 8 were tested in combination with CHDM. The MIC values determined in the individual antimicrobial agent testing described above were used to establish a target MIC. In each experiment, MIC values for the individual antimicrobial agents and CHDM were determined in order to eliminate any variability due to comparison of data from different dates. Testing was done over a range of four concentrations separated by a factor of 1.3333 as described above. The four concentrations were the target MIC plus one dilution level higher and two dilution levels lower than the target. Combinations of antimicrobial agents and CHDM were made at 50% of the target MIC values and the higher and lower individual levels. Additionally, 50% level series were also tested with the antimicrobial agent or CHDM at one dilution level lower than the target level. The method of Kull et. al. (F. C. Kull et al., Applied Microbiology, 9, p 538-541 (1961)) was used to determine whether there was synergistic activity between CHDM and each antimicrobial agent for inhibition of each of the five microbes. MICs for the individually-tested CHDM and antimicrobial agent, as well as the concentration of CHDM and antimicrobial agent in the combination MIC were used to calculate a synergy index (SI) according to the equation: […]
where Qa and Qb are the minimum inhibitory concentrations for CHDM and a antimicrobial agent, respectively, when tested independently, and QA and QB are the concentrations of CHDM and a antimicrobial agent, respectively, in combination at an inhibitory concentration. Accordingly, synergy is defined as a SI less than one.
Experiments were also conducted using Corynebacterium xerosis, which is a bacterium known to cause body odor. […] The Corynebacterium xerosis bacterium used in this example was ATCC #373. The seed culture was grown in brain heart infusion medium. Assays were performed in brain heart infusion media in 96-well plates as described in Example 2. The brain heart infusion medium was at a pH of about 7.4. All growth was conducted at 37° C.

[2] = test system: Candida albicans ATCC 10231; assay: MIC determination and synergy testing (Kull synergy index), microplate; conditions: for QB, MIC of MP alone: plate 128B; for QB, MIC of PE alone: plates 116B, 240B, 252B
Experimental: (§2) The test cultures are listed in Table 7 along with the incubation temperatures used for growth and minimum inhibitory concentration (MIC) testing. […] C. albicans was cultured in Sabouraud dextrose broth (SDB) for approximately 44-52 hours for preparation of inoculum. A. niger was cultured on Sabouraud dextrose agar (SDA) for 3-4 days until there was confluent growth and visible spore formation. Spores were harvested from the SDA plates by flooding the surface of the plate with 5-10 mL of phosphate-buffered saline (PBS) and gently spreading the liquid across the surface of the plate with a sterile T-shaped plastic spreader (Copan Diagnostics) until there was a well-mixed suspension of spores. The resulting spore suspension was collected using a serological pipette and stored at 2-8° C. until use.
(§3) Inoculum concentration was determined by dilution plating of the cultures or spore suspension. A serial dilution in PBS was made to 10^−8 for the bacterial cultures or 10^−5 for the fungal cultures. Fifty or 100 μL of the final dilution was spread on two Trypticase-soy agar (TSA) plates for bacteria or two SDA plates for fungi. After 24 to 48 hours plates were counted and the concentrations used in each experiment were calculated.
(§4) The antimicrobial agents tested for synergy along with the respective diluents and working stock solution concentrations are shown below. For determination of MIC ranges, individual antimicrobial agent stock solutions were added to sterile medium to yield the highest level test concentrations, and then serially diluted in the medium to prepare the range of test concentrations. For synergy testing individual test concentrations were prepared in sterile medium, and then blended to form the desired combinations.
as §1
(§5) Microplates were inoculated using the cultures or spore suspensions prepared as described above. The S. aureus cultures were used undiluted, while the E. coli and P. aeruginosa cultures were used either undiluted or after a 1:2 dilution in sterile TSB. The C. albicans cultures were used either undiluted or following a 2-fold concentration by centrifugation. One of two means of inoculation was used to deliver a final concentration of approximately 10^5 colony-forming units (CFU)/mL of C. albicans, 10^5 spores/mL of A. niger, or 10^6 CFU/mL of bacteria. The primary method used a stainless steel pin replicator (Nalge Nunc International) mounted on a hand-operated bench-top press (Schmidt Technology Corporation) fitted with a custom-built microplate holder to dispense one microliter of each inoculum from a “master” plate containing 50-100 μL of culture into the wells of the test plate. The pin replicator was sterilized before and between inoculations by immersing in ethanol and flaming. The alternative method of inoculation was by directly pipetting 20 μL of a 1:20 dilution of each culture or spore suspension into the appropriate wells of the test plates.

[3] = test system: Aspergillus niger ATCC 16404; assay: as above; conditions: for QB, MIC of CG alone / QB, MIC of PE alone: A. niger; for QB, MIC of PE alone: plates 122C, 242C
Experimental: as §2, §3
The A. niger spore suspensions were concentrated to a level of 1-2×10^8 spores/mL by centrifugation and resuspension in a portion of the resulting supernatant.
as §4, §1
Microplates were inoculated using the cultures or spore suspensions prepared as described above. The S. aureus cultures were used undiluted, while the E. coli and P. aeruginosa cultures were used either undiluted or after a 1:2 dilution in sterile TSB. The C. albicans cultures were used either undiluted or following a 2-fold concentration by centrifugation. One of two means of inoculation was used to deliver a final concentration of approximately 10^5 colony-forming units (CFU)/mL of C. albicans, 10^5 spores/mL of A. niger, or 10^6 CFU/mL of bacteria. The primary method used a stainless steel pin replicator (Nalge Nunc International) mounted on a hand-operated bench-top press (Schmidt Technology Corporation) fitted with a custom-built microplate holder to dispense one microliter of each inoculum from a “master” plate containing 50-100 μL of culture into the wells of the test plate. The pin replicator was sterilized before and between inoculations by immersing in ethanol and flaming. […]

[4] = test system: Pseudomonas aeruginosa ATCC 27853; assay: as above; conditions: for QB, MIC of CG alone: P. aeruginosa, plate 169E
Experimental: as §2, §3, §4, §1, §5

[5] = test system: Staphylococcus aureus ATCC 25923; assay: as above; conditions: for QB, MIC of CG alone: plate 125D
Experimental: as §2, §3, §4, §1, §5

[6] = test system: Escherichia coli ATCC 25922; assay: as above; conditions: E. coli; for QB, MIC of MP alone: plate 108A; for QB, MIC of PE alone: plates 105A, 213A, 223A
Experimental: as §2, §3, §4, §1, §5

[7] = C. albicans, day 2 of incubation
[8] = C. albicans, day 3 of incubation

SMILES: CCCCC(CC)COCC(O)CO (centres unmarked) [EHG, ethylhexyl glycerin, reference compound]
% EHG ([1]; Day 2): 100.0%
QB/b (EHG) ([1]; Day 2): 0.107
SI ([1]; Day 2): 1.00
% EHG ([1]; Day 3): 100.0%
QB/b (EHG) ([1]; Day 3): 0.080
SI ([1]; Day 3): 1.00

SMILES: CC1(C)C(=O)N(CO)C(=O)N1CO [DMDMH, DMDM Hydantoin, reference compound]
QB/b ([2]; DMDM hydantoin alone (QB) or in combination with CHDM (b), plate 241B, day 2): 0.22
QB/b ([2]; DMDM hydantoin alone (QB) or in combination with CHDM (b), plate 241B, day 3): 0.22
QB/b ([2]; DMDM hydantoin alone (QB) or in combination with CHDM (b), plate 244B, day 2): 0.36
QB/b ([2]; DMDM hydantoin alone (QB) or in combination with CHDM (b), plate 244B, day 3): 0.36
QB/b ([2]; DMDM hydantoin alone (QB) or in combination with CHDM (b), plate 263B, day 2): 0.45
QB/b ([2]; DMDM hydantoin alone (QB) or in combination with CHDM (b), plate 263B, day 3): 0.80
QB/b ([2]; DMDM hydantoin alone (QB) or in combination with CHDM (b), plate 264B, day 2): 0.34
QB/b ([2]; DMDM hydantoin alone (QB) or in combination with CHDM (b), plate 264B, day 3): 0.60
QB/b ([3]; DMDM hydantoin alone (QB) or in combination with CHDM (b), plate 196C, day 3): 0.14
QB/b ([4]; DMDM hydantoin alone (QB) or in combination with CHDM (b), plate 150E, day 1): 0.049

SMILES: CCCCCCC(O)CO (centres unmarked) [Caprylyl glycol (CG)]
QB, MIC of CG alone ([2]; C. albicans, day 3 of incubation, plates 117B, 254B): 0.11 weight percent and 0.22 weight percent
QB, MIC of CG alone ([3]; day 2 of incubation, plates 123C, 217C): 0.17 weight percent and 0.10 weight percent
QB, MIC of CG alone ([3]; day 3 of incubation, plate 123C): 0.13 weight percent
QB, MIC of CG alone ([4]; day 1 of incubation): 0.23 weight percent
QB, MIC of CG alone ([4]; day 2 of incubation): 0.30 weight percent
QB, MIC of CG alone ([4]; day 3 of incubation): 0.30 weight percent
QB, MIC of CG alone ([5]; S. aureus, day 1 of incubation): 0.24 weight percent
QB, MIC of CG alone ([5]; S. aureus, day 2 of incubation): 0.32 weight percent

QB, MIC of MP alone [2, 7]: 0.060 weight percent
QB, MIC of MP alone [2, 8]: 0.080 weight percent
QB, MIC of MP alone ([6]; day 1 of incubation): 0.112 weight percent
QB, MIC of MP alone ([6]; day 2 of incubation): 0.112 weight percent
SMILES: COC(=O)c1ccc(O)cc1 [Methylparaben (MP)]

SMILES: Cn1sccc1=O [MIT, Methylisothiazolinone, reference compound]
QB/b ([2]; MIT: MIC alone (QB) or conc. in combination with CHDM (b), plate 162B, day 3): 0.012
QB/b ([2]; MIT: MIC alone (QB) or conc. in combination with CHDM (b), plate 200B, day 2): 0.021
QB/b ([2]; MIT: MIC alone (QB) or conc. in combination with CHDM (b), plate 200B, day 3): 0.021
QB/b ([3]; MIT: MIC alone (QB) or conc. in combination with CHDM (b), plate 193C, day 2): 0.04
QB/b ([3]; MIT: MIC alone (QB) or conc. in combination with CHDM (b), plate 193C, day 3): 0.03
QB/b ([3]; MIT: MIC alone (QB) or conc. in combination with CHDM (b), plate 214C, day 2): 0.04
QB/b ([3]; MIT: MIC alone (QB) or conc. in combination with CHDM (b), plate 214C, day 3): 0.04
Synergism of antimicrobial agent in combination with 1,4-CHDM for P. aeruginosa (in words; in the 12th table the cell names the organism and table number) ([4]; Kull synergy index, synergistic when at least two results SI<1): P. aeruginosa (26)
QB/b ([4]; MIT: MIC alone (QB) or conc. in combination with CHDM (b), plate 147E, day 1): 0.00053
QB/b ([4]; MIT: MIC alone (QB) or conc. in combination with CHDM (b), plate 147E, day 2): 0.00093
QB/b ([4]; MIT: MIC alone (QB) or conc. in combination with CHDM (b), plate 210E, day 1): 0.0006
QB/b ([4]; MIT: MIC alone (QB) or conc. in combination with CHDM (b), plate 210E, day 2): 0.001
QB/b ([4]; MIT: MIC alone (QB) or conc. in combination with CHDM (b), plate 249E, day 1): 0.00048
QB/b ([4]; MIT: MIC alone (QB) or conc. in combination with CHDM (b), plate 249E, day 2): 0.0009
QB/b ([5]; MIT: MIC alone (QB) or conc. in combination with CHDM (b), plate 137D, day 2): 0.002

SMILES: OCCOc1ccccc1 [Phenoxyethanol (PE)]
QB, MIC of PE alone [2, 7]: 0.22 weight percent and 0.27 weight percent and 0.23 weight percent
QB, MIC of PE alone [2, 8]: 0.22 weight percent and 0.27 weight percent and 0.30 weight percent
QB, MIC of PE alone ([3]; day 2 of incubation): 0.24 weight percent and 0.30 weight percent
QB, MIC of PE alone ([3]; day 3 of incubation): 0.24 weight percent and 0.40 weight percent
QB, MIC of PE alone ([6]; day 1 of incubation): 0.36 weight percent and 0.33 weight percent and 0.48 weight percent
QB, MIC of PE alone ([6]; day 2 of incubation): 0.48 weight percent and 0.36 weight percent and 0.43 weight percent
QB, MIC of PE alone ([5]; S. aureus, day 2 of incubation, plates 124D, 219D): 0.73 weight percent and 0.55 weight percent
